Assay results from patent EP3789378A1, “PIPERIDINES OR PIPERIDONES SUBSTITUTED WITH UREA AND HETEROARYL” (Grünenthal GmbH, priority 2019, dated 2021).

Molecular target: T1, h FPR2 (Homo sapiens, UniProt P25090)
T1 construct: expressed in transfected cells
T1 sequence (P25090 1-351): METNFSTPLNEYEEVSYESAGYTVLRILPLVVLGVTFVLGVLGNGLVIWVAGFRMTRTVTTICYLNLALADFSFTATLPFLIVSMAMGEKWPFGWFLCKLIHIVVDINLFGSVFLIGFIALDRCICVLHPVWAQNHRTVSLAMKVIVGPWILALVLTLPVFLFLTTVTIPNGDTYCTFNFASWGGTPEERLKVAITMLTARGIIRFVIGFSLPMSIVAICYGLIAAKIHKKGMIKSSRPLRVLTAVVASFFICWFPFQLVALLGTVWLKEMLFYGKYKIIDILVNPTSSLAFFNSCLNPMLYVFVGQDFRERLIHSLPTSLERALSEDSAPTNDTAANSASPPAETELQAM
Assay: Agonistic activity in hFPR2-Aq-CHO cells (FLIPR Calcium 5 fluorescence assay)
Type: cell-based
Details: 11 point half log dilution, final assay concentration from 10µM
Summary of the method: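 hFPR2-Aq-CHO cells were loaded with Calcium 5 dye for 30 min at 37 °C and equilibrated 10 min at room temperature. Compound (11 points, 10 µM to 100 pM final) was added in HBSS/HEPES/probenecid buffer pH 7.4. Fluorescence rise over basal across 5 min, relative to no-compound wells, gave EC50.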

EC50 | Compound
0.7 nM | COc1ccc([C@@H]2CN(CC(C)(C)O)CC[C@H]2NC(=O)Nc2ccc(Cl)cc2)nc1 (relative stereo) [Ex-120, trans-1-(4-Chlorophenyl)-3-[1-(2-hydroxy-2-methyl-propyl)-3-(5-methoxy-pyridin-2-yl)-piperidin-4-yl]-urea]
3 nM | COc1ccc([C@@H]2CN(CCO)CC[C@H]2NC(=O)Nc2cc(C)ns2)nc1 (relative stereo) [Ex-122, trans-1-[1-(2-Hydroxy-ethyl)-3-(5-methoxy-pyridin-2-yl)-piperidin-4-yl]-3-(3-methyl-isothiazol-5-yl)-urea]
1.2 nM | COc1ccc([C@@H]2CN(C)CC[C@H]2NC(=O)Nc2ccc(Cl)cc2)nc1 (relative stereo) [Ex-126, trans-1-(4-Chlorophenyl)-3-[3-(5-methoxy-pyridin-2-yl)-1-methyl-piperidin-4-yl]-urea]
0.16 nM | COc1ccc([C@@H]2CN(CC3CC3)CC[C@H]2NC(=O)Nc2ccc(Cl)cc2)nc1 (relative stereo) [Ex-127, trans-1-(4-Chlorophenyl)-3-[1-(cyclopropyl-methyl)-3-(5-methoxy-pyridin-2-yl)-piperidin-4-yl]-urea]
0.3 nM | COc1ccc([C@@H]2CN(CC(N)=O)CC[C@H]2NC(=O)Nc2ccc(Cl)cc2)nc1 (relative stereo) [Ex-129, trans-2-[4-[[(4-Chlorophenyl)-carbamoyl]amino]-3-(5-methoxy-pyridin-2-yl)-piperidin-1-yl]-acetamide]
1.4 nM | COc1ccc([C@@H]2CN(CCN(C)C)CC[C@H]2NC(=O)Nc2ccc(Cl)cc2)nc1 (relative stereo) [Ex-136, trans-1-(4-Chlorophenyl)-3-[1-[2-(dimethylamino)ethyl]-3-(5-methoxy-pyridin-2-yl)-piperidin-4-yl]-urea]
0.2 nM | CNCCCN1CC[C@@H](NC(=O)Nc2ccc(Cl)cc2)[C@H](c2ccc(OC)cn2)C1 (relative stereo) [Ex-137, trans-1-(4-Chlorophenyl)-3-[3-(5-methoxy-pyridin-2-yl)-1-(3-methylamino-propyl)-piperidin-4-yl]-urea]
1.1 nM | COc1ccc([C@@H]2CN(CCC(N)=O)CC[C@H]2NC(=O)Nc2ccc(Cl)cc2)nc1 (relative stereo) [Ex-142, trans-3-[4-[[(4-Chlorophenyl)-carbamoyl]amino]-3-(5-methoxy-pyridin-2-yl)-piperidin-1-yl]-propionamide]
1 nM | COc1ccc([C@@H]2CN(CCC(C)(C)C#N)CC[C@H]2NC(=O)Nc2ccc(Cl)cc2)nc1 (relative stereo) [Ex-144, trans-1-(4-Chlorophenyl)-3-[1-(3-cyano-3-methyl-butyl)-3-(5-methoxy-pyridin-2-yl)-piperidin-4-yl]-urea]
0.3 nM | COc1ccc([C@@H]2CN(Cc3cnn(C)c3)CC[C@H]2NC(=O)Nc2ccc(Cl)cc2)nc1 (relative stereo) [Ex-145, trans-1-(4-Chlorophenyl)-3-[3-(5-methoxy-pyridin-2-yl)-1-[(1-methyl-1H-pyrazol-4-yl)-methyl]-piperidin-4-yl]-urea]
35 nM | COc1ccc([C@@H]2CN(C(=O)C3CCNCC3)CC[C@H]2NC(=O)Nc2ccccc2)nc1 (relative stereo) [Ex-151, trans-1-[3-(5-Methoxy-pyridin-2-yl)-1-(piperidine-4-carbonyl)-piperidin-4-yl]-3-phenyl-urea]

More lines, now with the values behind:

Compound | EC50
COc1ccc([C@@H]2CN(CC(C)(C)O)CC[C@H]2NC(=O)Nc2cc(C)ns2)nc1 (relative stereo) [Ex-121, trans-1-[1-(2-Hydroxy-2-methyl-propyl)-3-(5-methoxy-pyridin-2-yl)-piperidin-4-yl]-3-(3-methyl-isothiazol-5-yl)-urea] | 1.2 nM
COc1ccc([C@@H]2CN(C(=O)CO)CC[C@H]2NC(=O)Nc2cc(C)ns2)nc1 (relative stereo) [Ex-123, trans-1-[1-(2-Hydroxy-acetyl)-3-(5-methoxy-pyridin-2-yl)-piperidin-4-yl]-3-(3-methyl-isothiazol-5-yl)-urea] | 18 nM
COc1ccc([C@@H]2CN(Cc3cnn(S(C)(=O)=O)c3)CC[C@H]2NC(=O)Nc2ccc(Cl)cc2)nc1 (relative stereo) [Ex-125, trans-1-(4-Chlorophenyl)-3-[3-(5-methoxy-pyridin-2-yl)-1-[(1-methylsulfonyl-1H-pyrazol-4-yl)-methyl]-piperidin-4-yl]-urea] | 0.09 nM
COc1ccc([C@@H]2CN(C(=O)c3ccc(C)nc3)CC[C@H]2NC(=O)Nc2ccc(C#N)cc2)nc1 (relative stereo) [Ex-128, trans-1-(4-Cyano-phenyl)-3-[3-(5-methoxy-pyridin-2-yl)-1-(6-methyl-pyridine-3-carbonyl)-piperidin-4-yl]-urea] | 5 nM
O=C(Nc1ccc(Cl)cc1)N[C@@H]1CCN(C(=O)C2CCNCC2)C[C@H]1c1ccc(Cl)s1 (relative stereo) [Ex-130, trans-1-(4-Chlorophenyl)-3-[3-(5-chloro-thiophen-2-yl)-1-(piperidine-4-carbonyl)-piperidin-4-yl]-urea] | 4 nM
O=C(Nc1ccc(Cl)cc1)N[C@@H]1CCN(C(=O)C2CCC(O)CC2)C[C@H]1c1ccc(Cl)s1 (relative stereo) [Ex-132, trans-1-(4-Chlorophenyl)-3-[3-(5-chloro-thiophen-2-yl)-1-(4-hydroxy-cyclohexanecarbonyl)-piperidin-4-yl]-urea] | 39 nM
COc1ccc([C@@H]2CN(C3COC3)CC[C@H]2NC(=O)Nc2cc(C)ns2)nc1 (relative stereo) [Ex-133, trans-1-[3-(5-Methoxy-pyridin-2-yl)-1-(oxetan-3-yl)-piperidin-4-yl]-3-(3-methyl-isothiazol-5-yl)-urea] | 13 nM
CNCCN1CC[C@@H](NC(=O)Nc2cc(C)ns2)[C@H](c2ccc(OC)cn2)C1 (relative stereo) [Ex-134, trans-1-[3-(5-Methoxy-pyridin-2-yl)-1-(2-methylamino-ethyl)-piperidin-4-yl]-3-(3-methyl-isothiazol-5-yl)-urea] | 2 nM
CNCCC(=O)N1CC[C@@H](NC(=O)Nc2cc(C)ns2)[C@H](c2ccc(OC)cn2)C1 (relative stereo) [Ex-135, trans-1-[3-(5-Methoxy-pyridin-2-yl)-1-(3-methylamino-propanoyl)-piperidin-4-yl]-3-(3-methyl-isothiazol-5-yl)-urea] | 17 nM
COc1ccc([C@@H]2CN(Cc3cnn(S(C)(=O)=O)c3)CC[C@H]2NC(=O)Nc2ccc(C#N)cc2)nc1 (relative stereo) [Ex-140, trans-1-(4-Cyano-phenyl)-3-[3-(5-methoxy-pyridin-2-yl)-1-[(1-methylsulfonyl-1H-pyrazol-4-yl)-methyl]-piperidin-4-yl]-urea] | 0.9 nM
COc1ccc([C@@H]2CN(C(=O)c3ccc(C(F)(F)F)nc3)CC[C@H]2NC(=O)Nc2ccc(C#N)cc2)nc1 (relative stereo) [Ex-141, trans-1-(4-Cyano-phenyl)-3-[3-(5-methoxy-pyridin-2-yl)-1-[6-(trifluoromethyl)-pyridine-3-carbonyl]-piperidin-4-yl]-urea] | 1.2 nM
COc1ccc([C@@H]2CN(Cc3cnn(C)c3)CC[C@H]2NC(=O)Nc2ccc(C#N)cc2)nc1 (relative stereo) [Ex-146, trans-1-(4-Cyano-phenyl)-3-[3-(5-methoxy-pyridin-2-yl)-1-[(1-methyl-1H-pyrazol-4-yl)-methyl]-piperidin-4-yl]-urea] | 2 nM
COc1ccc([C@@H]2CN(CC3CCN(C)CC3)CC[C@H]2NC(=O)Nc2ccc(Cl)cc2)nc1 (relative stereo) [Ex-147, trans-1-(4-Chlorophenyl)-3-[3-(5-methoxy-pyridin-2-yl)-1-[(1-methyl-piperidin-4-yl)-methyl]-piperidin-4-yl]-urea] | 0.4 nM
COc1ccc([C@@H]2CN(CCS(C)(=O)=O)CC[C@H]2NC(=O)Nc2cc(C)ns2)nc1 (relative stereo) [Ex-148, trans-1-[3-(5-Methoxy-pyridin-2-yl)-1-(2-methylsulfonyl-ethyl)-piperidin-4-yl]-3-(3-methyl-isothiazol-5-yl)-urea] | 6 nM
COc1ccc([C@@H]2CN(CC(F)F)CC[C@H]2NC(=O)Nc2ccccc2)nc1 (relative stereo) [Ex-150, trans-1-[1-(2,2-Difluoro-ethyl)-3-(5-methoxy-pyridin-2-yl)-piperidin-4-yl]-3-phenyl-urea] | 3 nM

Same assay, conditions: agonistic response at 0.1µM

activation at 0.1 µM | Compound
34% | COc1ccc([C@@H]2CN(C(=O)CO)CC[C@H]2NC(=O)Nc2ccccc2)nc1 (relative stereo) [Ex-139, trans-1-[1-(2-Hydroxy-acetyl)-3-(5-methoxy-pyridin-2-yl)-piperidin-4-yl]-3-phenyl-urea]
25% | O=C(Nc1ccccc1)N[C@@H]1CCN(CCO)C[C@H]1c1ccc(Cl)cn1 (relative stereo) [Ex-152, trans-1-[3-(5-Chloro-pyridin-2-yl)-1-(2-hydroxy-ethyl)-piperidin-4-yl]-3-phenyl-urea]

Continued, molecule first:

Compound | activation at 0.1 µM
O=C(Nc1ccc(Cl)cc1)N[C@@H]1CCN(C(=O)CCO)C[C@H]1c1ccc(Cl)s1 (relative stereo) [Ex-131, trans-1-(4-Chlorophenyl)-3-[3-(5-chloro-thiophen-2-yl)-1-(3-hydroxy-propanoyl)-piperidin-4-yl]-urea] | 38%
COc1ccc([C@@H]2CN(C3CCS(=O)(=O)CC3)CC[C@H]2NC(=O)Nc2cc(C)ns2)nc1 (relative stereo) [Ex-149, trans-1-[1-(1,1-Dioxo-thian-4-yl)-3-(5-methoxy-pyridin-2-yl)-piperidin-4-yl]-3-(3-methyl-isothiazol-5-yl)-urea] | 25%
